Tests used:
[1] = tested on: HCT116 MTAP-/- cells; assay: HCT116 MTAP-/- cell proliferation assay (CellTiter-Glo, 10 days); format: cell-based; settings: Homo sapiens, HCT-116, 240 h, growth inhibition, CTG assay Day 10
Description: • I. Experimental materials and instruments • 1. HCT116 cell line (Nanjing Kebai Biotechnology Co., Ltd., CBP60028) • 2. HCT116 MTAP-/- cell line (Nanjing Kebai Biotechnology Co., Ltd., CBP75002) • 3. DMSO (Sigma, D2650) • 4. McCoy's 5A medium (Gibco, 16600-082) • 5. Foetal bovine serum (FBS) (Gibco, 10091148) • 6. Phosphate buffered saline (DPBS) pH 7.4 (Gibco, 14190-144) • 7. Pen strep (PS) (Gibco, 15140-122) • 8. 0.25% Typsin-EDTA (1×) (Gibco, 25200-072) • 9. CellTiter-Glo® Luminescent Cell Viability Assay (Promega, G7572) • 10. 96-well round-bottom plate (JET, TCP002096) • 11. 96-well black clear bottom plate (Hangzhou Xinyou Biotechnology Co., Ltd., 060096) • 12. 1.2 mL 96-well deep well plate, clear, sterile, square-well, V-bottom (Titan, 02089063) • 13. 15-mL centrifuge tube (Titan) • 14. Biosafety cabinet (Thermo, 1300AII) • 15. Cell counter (Countstar, IC1000) • 16. Incubator (Thermo, I160) • 17. Centrifuge (Beckman coulter, Allegra X-12 centrifuge) • 18. PHERAstar FS microplate reader (BMG Labtech) • II. Experimental procedure • 1. Cell plating (Day 0) • a) The cell morphology was observed under a microscope to ensure confluence reached approximately 90%. • b) The cell supernatant was aspirated, the cells were washed once with PBS, and then the PBS was removed; and the cells were digested by adding an appropriate amount of trypsin, and left to stand at 37°C for 3 minutes. • c) The digestion was terminated by adding an equal volume of McCoy's 5A medium containing 10% FBS, and the cell suspension was collected and centrifuged at 300 g for 3 minutes; and the cells were resuspended in an appropriate amount of fresh medium. • d) The resuspended cell suspension was taken for counting. • e) The cell suspension was diluted to 1e4/mL using McCoy's 5A medium containing 10% FBS, and seeded at 50 µL per well, corresponding to 500 cells/well for HCT116 and 500 cells/well for HCT116 MTAP-/-. • f) The cell plate was placed in a 37°C, 5% carbon dioxide incubator and incubated overnight. • 2. Compound treatment (Day 1) • a) Each compound was serially diluted in DMSO to generate a 9-point concentration gradient (starting concentration: 10000 µM, 3-fold dilution; the highest concentration may be adjusted individually based on IC50 of different compounds); for example, in a 96-well round-bottom compound-dilution plate, 5 µL of the compound was sequentially diluted into 10 µL of DMSO. • b) Each concentration point of every compound was then diluted 250-fold into the corresponding volume of McCoy's 5A medium. • c) To each cell plate, 50 µL of the diluted compound solution as described above was added sequentially to the cell supernatant (50 µL/well). • d) The compound-treated cell plate was placed in a 37°C, 5% carbon dioxide incubator and incubated. • 3. Re-digestion, re-plating and compound treatment (Day 5) • a) After 5 days of compound treatment, the compound-containing medium was aspirated, and the cells were rinsed once with PBS (100 µL/well); and the PBS was removed immediately. • b) The cells were digested by adding 25 µL of trypsin and incubated at 37°C for 3 minutes, and then the digestion was terminated by adding 175 µL/well of McCoy's 5A medium containing 10% FBS. • c) The cells were mixed thoroughly using a pipette, and re-plated at 1 : 20; and specifically, 10 µL of the cell suspension was aspirated to a new 96-well plate (pre-filled with 40 µL of McCoy's 5A medium containing 10% FBS. • d) Compounds were prepared and added according to steps a) to c) in Section 2, with 50 µL added per well. • e) The compound-treated cell plate was placed in a 37°C, 5% carbon dioxide incubator and incubated. • 4. […]

[2] = Pharmacokinetic evaluation in Nu/Nu mice (plasma, LC-MS/MS); format: in vivo; settings: mouse, in vivo, po, i.g., 100 mg/kg
Procedure: Using Nu/Nu mice as the test animals, the plasma concentrations of the example compounds at different time points were determined by LC-MS/MS following oral gavage (i.g.) administration. The pharmacokinetic behaviours of the compounds of the present disclosure in Nu/Nu mice were investigated, and their pharmacokinetic profiles were evaluated.
Compound 1-p1, compound 2-p1, compound 8-p1 and comparative example 1.
A total of 36 female Nu/Nu mice (supplied by Vital River Laboratory Animal Technology Co., Ltd.) were randomly divided into 4 groups.
An appropriate amount of each test compound was weighed and dissolved in 5% DMSO+20% PEG400+70% (10% TPGS)+5% (1% HMPC K100LV) to prepare a 10 mg/mL colourless clear solution.
The administration dosage was 100 mg/kg, and the administration volume was 10 mL/kg.
Mice were not fasted. After oral gavage administration, blood (0.1 mL) was collected from the orbital cavity before administration, and at 0.25 h, 0.5 h, 1.0 h, 2.0 h, 4.0 h, 6.0 h, 8.0 h, 11.0 h and 24.0 h after administration. The blood was placed into EDTA-K2 anticoagulant tubes and centrifuged at 10000 rpm for 1 minute (4°C) to separate plasma. The plasma was separated within 1 h and stored at -20°C until analysis. The entire process from blood collection to centrifugation was performed in ice bath conditions.
Determination of test compound contents in plasma of Nu/Nu mice after administration of different compounds: To 20 µL of plasma samples from each time point in Nu/Nu mice, 200 µL of acetonitrile and 25 µL of verapamil (100 ng/mL) were added. The mixture was vortex-mixed for 5 minutes and centrifuged at 4000 rpm for 15 minutes. 90 µL of water and 90 µL of the supernatant were vortex-mixed for 5 minutes. 2 µL (for compound 1-p1), 2 µL (for compound 2-p1), 1 µL (for compound 8-p1), or 0.5 µL (for comparative example 1) of the supernatant was taken for LC-MS/MS analysis receptively.

[3] = target: T1, Recombinant human PRMT5: MEP50 protein (Homo sapiens, UniProt O14744); assay: Inhibitory activity against human PRMT5 enzymatic activity (HTRF quantification of SAH, +MTA); format: biochemical; settings: +1 µM MTA; histone H4 peptide substrate (1-21), SAM; 37°C 120 min
T1 construct: purchased active motif 31521
Procedure: • 1. Recombinant human PRMT5: MEP50 protein (active motif, 31521) • 2. EPIgeneous Methyltransferase kit (cisbio, 62SAHPEH) • 3. 96-well plate (Sangon Biotech, F610960-0010) • 4. 384-well white plate (Perkin Elmer, 6007290) • 5. 1 M Tris-HCl [pH 8.5] (Sangon Biotech, B548141) • 6. Histone H4 peptide substrates (1-21) (BPS bioscience, 52014) • 7. 5'-deoxy-5'-(methylthio)adenosine (Aladdin, D168979-25 mg) • 8. Tween-20 (Sangon Biotech, A100777-0500) • 9. DMSO (Sigma, D2650) • 10. Incubator (Shanghai Boxun Medical Biological Instrument Corp.) • 11. PHERAstar FS microplate reader (BMG Labtech)
PRMT5 can induce the transfer of a methyl group from S-adenosylmethionine (SAM) to a histone H4 peptide substrate (1-21), generating S-adenosylhomocysteine (SAH). In this experiment, the amount of SAH produced in the reaction is quantified using a Homogeneous Time-Resolved Fluorescence (HTRF) method to evaluate the inhibitory activity of compounds against PRMT5 enzymatic activity.
The sample diluent containing (or not containing) 1 µM 5 '-deoxy-5' - (methylthiyl) adenosine (MTA) was prepared using the EPIgeneous Diluent Buffer from the EPIgeneous Methyltransferase kit. With reference to the instructions, SAM and SAH standards were serially diluted and dispensed at 10 µL per well (in duplicate for each concentration). 2 µL of EPIgeneous Detection Buffer 1 was added to each well, and the plate was centrifuged, shaken to mix thoroughly, and placed at room temperature for 10 min. The SAH d2 Reagent was diluted 32-fold with EPIgeneous Detection Buffer 2, and 4 µL of the diluted SAH-d2 solution was added to each well. The plate was centrifuged and shaken for 2 min to mix thoroughly. The SAH Tb Cryptate Antibody was diluted 50-fold in EPIgeneous Detection Buffer 2. 4 µL of the diluted Tb Cryptate Antibody solution was added to each well, and the plate was centrifuged, shaken for 2 min to mix thoroughly, and left to stand at room temperature for 60 min, followed by reading on a PHERAstar FS microplate reader to obtain the 665/620 ratio. Plotting SAH concentration against the ratio to generate an x-y curve yields a corresponding calculation formula.
Reaction buffer (1×): 50 mM Tris-HCl [pH 8.5], 1 mM DTT, 0.005% Tween-20.
Compound preparation: a 20 mM solution of test compound in 100% DMSO was diluted in 100% DMSO to 1 mM as the highest concentration, and the solution at this concentration was then subjected to a 10-point, 3-fold serial dilution in 100% DMSO in a 96-well plate. Wells containing 100% DMSO served as the blank control. The above-described serially diluted compounds and the 100% DMSO were diluted 20-fold with the reaction buffer to prepare 5× compound solutions, which were mixed thoroughly for use.
The PRMT5:MEP50 was diluted in the reaction buffer to a final concentration of 12.5 nM. Then, 4 µL of the 12.5 nM PRMT5:MEP50 solution was added to each well of a 384-well plate. Wells containing 4 µL of the reaction buffer served as the negative control wells. 2 µL of the 5× compound solution was added to each well. For the negative control wells (no enzyme, no compound) and the positive control wells (no compound), 2 µL of 5% DMSO was added. The plate was sealed with a membrane, centrifuged, shaken for 2 min to mix thoroughly, and placed at room temperature for 20 min.
Preparation of substrate mixture solution: The substrate mixture solution containing 1.5 µM histone H4 peptide substrate (1-21) and 2.5 µM SAM, or 1.5 µM histone H4 peptide substrate (1-21), 2.5 µM SAM and 2.5 µM MTA was prepared in the reaction buffer.
The reaction was initiated by adding 4 µL of the substrate mixture solution (-/+ MTA) to each well. The plate was sealed with a membrane, centrifuged, shaken for 2 min to mix thoroughly, and incubated at 37°C for 120 min in a constant temperature incubator.
Detection: The detection was performed by using the EPIgeneous Methyltransferase kit. […]

T1 sequence (O14744 whole entry): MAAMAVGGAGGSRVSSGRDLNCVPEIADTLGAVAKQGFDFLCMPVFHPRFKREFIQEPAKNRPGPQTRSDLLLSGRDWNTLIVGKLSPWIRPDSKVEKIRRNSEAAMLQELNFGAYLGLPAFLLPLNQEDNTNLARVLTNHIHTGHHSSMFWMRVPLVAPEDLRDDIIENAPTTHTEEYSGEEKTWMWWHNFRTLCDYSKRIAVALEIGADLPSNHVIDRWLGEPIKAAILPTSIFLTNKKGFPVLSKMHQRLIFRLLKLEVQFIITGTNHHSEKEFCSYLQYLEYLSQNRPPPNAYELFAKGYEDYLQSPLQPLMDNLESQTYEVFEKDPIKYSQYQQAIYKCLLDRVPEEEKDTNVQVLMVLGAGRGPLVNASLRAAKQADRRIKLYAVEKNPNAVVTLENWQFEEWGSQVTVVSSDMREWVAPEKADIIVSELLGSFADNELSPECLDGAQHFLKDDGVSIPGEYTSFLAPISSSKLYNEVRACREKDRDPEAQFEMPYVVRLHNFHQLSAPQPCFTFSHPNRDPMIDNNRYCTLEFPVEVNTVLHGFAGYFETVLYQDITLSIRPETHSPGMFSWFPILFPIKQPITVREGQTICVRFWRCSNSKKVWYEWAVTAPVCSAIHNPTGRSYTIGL
T1 sequence (Q9BQA1 whole entry partner): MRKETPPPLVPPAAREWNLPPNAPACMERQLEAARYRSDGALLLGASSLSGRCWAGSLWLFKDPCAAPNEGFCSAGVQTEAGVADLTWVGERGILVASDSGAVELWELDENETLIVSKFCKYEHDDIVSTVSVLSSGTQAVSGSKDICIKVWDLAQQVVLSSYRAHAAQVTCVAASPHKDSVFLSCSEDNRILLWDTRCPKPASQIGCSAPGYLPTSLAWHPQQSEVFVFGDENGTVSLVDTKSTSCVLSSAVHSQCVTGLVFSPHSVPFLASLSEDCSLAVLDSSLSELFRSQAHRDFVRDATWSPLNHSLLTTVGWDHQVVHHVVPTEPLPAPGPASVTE

Structure (SMILES) | IC50 [3] [nM] | other results
Cn1ncc(-c2ccc3c(=O)[nH]nc(CN)c3c2)c1-c1c(F)cc2c(c1C#N)OCCO2 (atropisomer, axis not shown) [Comparative example 1, reference compound] |  | IC50 [1]: 70.8 nM; Vd/F ([2]; read-out: Apparent volume of distribution V/F): 132 L/kg; AUC(0-t) ([2]; read-out: Area under the curve AUC0-t): 1720 ng·h/mL; CL/F ([2]; read-out: Clearance CL/F): 960 mL/min/kg; half-life ([2]; read-out: Half life T1/2 (converted)): 1.6 h; Cmax ([2]; read-out: Plasma concentration Cmax): 657 ng/mL
[2H]C([2H])([2H])n1ncc(-c2ccc3c(=O)[nH]nc(CN)c3c2)c1-c1c(F)c(Cl)c2c(c1C#N)O[C@H]1CC[C@H]1O2 (atropisomer, axis not shown; (M)) [Compound 11-p3, (M)-(2aS,8aR)-5-(4-(4-(aminomethyl)-1-oxo-1,2-dihydrophthalazin-6-yl)-1-(methyl-d3)-1H-pyrazol-5-yl)-7-chloro-6-fluoro-1,2,2a,8a-tetrahydrobenzo[b]cyclobuta[e][1,4]dioxine-4-carbonitrile] | 5.4 | IC50 [1]: 4.6 nM
[2H]C([2H])([2H])n1ncc(-c2ccc3c(=O)[nH]nc(CN)c3c2)c1-c1c(F)cc2c(c1C#N)O[C@H]1CC[C@H]1O2 (single isomer, unassigned) [Compound 2-p3] | 5.31 | 
[2H]C([2H])([2H])n1ncc(-c2ccc3c(=O)[nH]nc(CN)c3c2)c1-c1c(F)cc2c(c1C#N)N1CCC[C@@H]1CO2 (single isomer, unassigned) [Compound 5-p1] | 7.67 | 
[2H]C([2H])([2H])n1ncc(-c2ccc3c(=O)[nH]nc(CN)c3c2)c1-c1c(F)cc2c(c1C#N)N1CCC[C@H]1CO2 (single isomer, unassigned) [Compound 8-p2] | 3.86 | 

Now from value to molecule, other results behind:

IC50 [3] [nM] | Structure (SMILES) | other results
5.48 | Cn1ncc(-c2ccc3c(=O)[nH]nc(CN)c3c2)c1-c1c(F)cc2c(c1C#N)O[C@@H]1CC[C@@H]1O2 (atropisomer, axis not shown; (P)) [Compound 1-p4, (P)-(2aR,8aS)-5-(4-(4-(aminomethyl)-1-oxo-1,2-dihydrophthalazin-6-yl)-1-methyl-1H-pyrazol-5-yl)-6-fluoro-1,2,2a,8a-tetrahydrobenzo[b]cyclobuta[e][1,4]dioxine-4-carbonitrile] | 
5.87 | [2H]C([2H])([2H])n1ncc(-c2ccc3c(=O)[nH]nc(CN)c3c2)c1-c1c(F)cc2c(c1C#N)O[C@@H]1CC[C@@H]1O2 (single isomer, unassigned) [Compound 2-p4] | 
4.91 | [2H]C([2H])([2H])n1ncc(-c2ccc3c(=O)[nH]nc(CN)c3c2)c1-c1c(F)cc2c(c1C#N)N1CCC[C@@H]1CO2 (single isomer, unassigned) [Compound 5-p2] | 
6.39 | [2H]C([2H])([2H])n1ncc(-c2ccc3c(=O)[nH]nc(CN)c3c2)c1-c1c(F)cc2c(c1C#N)OCC21CC1 [Compound 12, 6-(4-(4-(aminomethyl)-1-oxo-1,2-dihydrophthalazin-6-yl)-1-(methyl-d3)-1H-pyrazol-5-yl)-5-fluoro-2H-spiro[benzofuran-3,1'-cyclopropane]-7-carbonitrile] | 

Reference: patent EP4759817A1, “HETEROARYL COMPOUND, PREPARATION METHOD THEREFOR, AND USE THEREOF IN MEDICINE” (Jiangsu Hengrui Pharmaceuticals Co., Ltd., priority 2023, dated 2025)
